Here are results for 17 molecules from patent US8017612B2, “Piperazine compound and use thereof as a HCV polymerase inhibitor” (priority 2006, dated 2011).

Where a name gives a salt, the structure may show the parent alone. Bounds are passed on as bounds.

Test [1] concerns the target T1, HCV polymerase (NS5B) type 1b (Hepatitis C virus genotype 1b, UniProt P26663).
T1 construct: a region encoding NS5B (J Virol 1991 March, 65(3), 1105-13, 544 amino acids after deletion of 47 amino acids on the C-terminal); 6xHis (C); made in house; host or cells: Escherichia coli
The test can be described thus: Assay of enzyme (HCV polymerase) inhibitory activity, type 1b enzyme. It counts as biochemical, HCV BK strain (type 1b). The following applies: HCV polymerase inhibitory activity (IC50), 1b, type 1b enzyme 0.5 μg/ml, 25° C., 60 min. The text has this: (§1) The evaluation of the HCV polymerase inhibitory activity of the compound of the present invention is explained in the following. This polymerase is an enzyme coded for by the non-structural protein region called NS5B on the genome RNA of HCV.
(§2) i) Preparation of Enzyme (HCV Polymerase)
(§3) Using, as a template, a cDNA clone corresponding to the full length genome RNA of HCV BK strain (type 1b) obtained from the blood of a patient with hepatitis C, a region encoding NS5B (J Virol 1991 March, 65(3), 1105-13, 544 amino acids after deletion of 47 amino acids on the C-terminal) was amplified by PCR. The objective gene was prepared by adding a 6 His tag {base pair encoding 6 continuous histidine (His)} to the 3′ end thereof and transformed to Escherichia coli. The Escherichia coli capable of producing the objective protein was cultured. The obtained cells were suspended in a buffer solution and crushed in a microfluidizer. The supernatant was obtained by centrifugation and applied to various column chromatographys {mono-S, Sephacryl S-200 (Pharmacia)}, inclusive of metal chelate chromatography, to give a standard enzyme product.
(§4) ii) Synthesis of Substrate RNA
(§5) Using a synthetic primer designed based on the sequence of HCV genomic 3′ untranslated region, a DNA fragment (148 bp) containing polyU and 3′X sequence was entirely synthesized and cloned into plasmid pBluescript SK II(+) (Stratagene). The cDNA encoding full length NS5B, which was prepared in i) above, was digested with restriction enzyme KpnI to give a cDNA fragment containing the nucleotide sequence of from the restriction enzyme cleavage site to the termination codon. This cDNA fragment was inserted into the upstream of 3′ untranslated region of the DNA in pBluescript SK II(+) and ligated. The about 450 bp inserted DNA sequence was used as a template in the preparation of substrate RNA. This plasmid was cleaved immediately after the 3′X sequence, linearized and purified by phenol-chloroform treatment and ethanol precipitation to give DNA.
(§6) RNA was synthesized (37° C., 4 hr) by run-off method using this purified DNA as a template, a promoter of pBluescript SK II(+), MEGAscript RNA synthesis kit (Ambion) and T7 RNA polymerase. DNase I was added and the mixture was incubated for 1 hr. The template DNA was removed by decomposition to give a crude RNA product. This crude product was treated with phenol-chloroform and purified by ethanol precipitation to give the objective substrate RNA.
(§7) This RNA was applied to urea denaturation polyacrylamide gel electrophoresis to confirm the quality thereof and preserved at −80° C.
(§8) iii) Assay of Enzyme (HCV Polymerase) inhibitory activity
(§9) A test substance (compound of the present invention) and a reaction mixture (30 μl) having the following composition were reacted at 25° C. for 60 min.
(§10) 10% Trichloroacetic acid and 1% sodium pyrophosphate solution (150 μl) at 4° C. was added to this reaction mixture to stop the reaction. The reaction mixture was left standing at 4° C. for 15 min to insolubilize RNA. This RNA was trapped on a glass filter (PerkinElmer, GF/B) upon filtration by suction. This filter was washed with a solution containing 1% trichloroacetic acid and 0.1% sodium pyrophosphate, washed with 90% ethanol and dried. A liquid scintillation cocktail (PerkinElmer) was added and the radioactivity of RNA synthesized by the enzyme reaction was measured on a liquid scintillation counter.
The HCV polymerase inhibitory activity (IC50) of the compound of the present invention was calculated from the values of radioactivity of the enzyme reaction with and without the test substance.
Reaction mixture: HCV polymerase (type 1b 0.5 μg/ml or type 1a 1.5 μg/m) obtained in i), substrate RNA (5 μg/ml) obtained in ii), ATP (50 μM), GTP (50 μM), CTP (50 μM), UTP (2 μM), [5,6-^3H]UTP (30-60 Ci/mmol (Amersham Biosciences), 1 μCi) 20 mM Tris-HCl (pH 7.5), EDTA (1 mM), MgCl2 (5 mM), NaCl (50 mM), DTT (1 mM), BSA (0.01%)

Test [2] concerns the target T2, HCV polymerase (NS5B) type 1a (Hepatitis C virus genotype 1a, UniProt P26664).
T2 construct: made in house; host or cells: Escherichia coli (by the 'similar method' of the 1b enzyme)
Kind of test: Assay of enzyme (HCV polymerase) inhibitory activity, type 1a enzyme. It counts as biochemical, HCV type 1a (cloned from the blood of patients). Conditions: HCV polymerase inhibitory activity (IC50), 1a, type 1a enzyme 1.5 μg/ml, 25° C., 60 min.
From the text: as §1, §2, §3
Standard enzyme products for type 1a (cloned from the blood of patients) were also obtained by a similar method.
as §4, §5, §6, §7, §8, §9, §10
The HCV polymerase inhibitory activity (IC50) of the compound of the present invention was calculated from the values of radioactivity of the enzyme reaction with and without the test substance. […]

The term IC50 denotes the point on the concentration scale where inhibition reaches its midpoint. Low values mean greater potency in that assay, high ones weaker potency in that assay. For the molecule `CC(C)c1ccc(CNC(=O)[C@H]2CNCCN2S(=O)(=O)c2ccc(C(F)(F)F)cc2)cc1` [Example 1, (R)-1-(4-trifluoromethyl-benzenesulfonyl)-piperazine-2-carboxylic acid 4-isopropyl-benzylamide hydrochloride], the IC50 in test [1] and in test [2] was greater than 1000 nM in each case.

With `CC(C)c1ccc(CNC(=O)[C@H]2CN(C(=O)Cc3ccncc3)CCN2S(=O)(=O)c2ccc(C(F)(F)F)cc2)cc1` [Example 2, (R)-4-(2-pyridin-4-yl-acetyl)-1-(4-trifluoromethyl-benzenesulfonyl)-piperazine-2-carboxylic acid 4-isopropyl-benzylamide], the IC50 in test [1] and in test [2] was 100 to 1000 nM in each case.

As for `CC(C)c1ccc(CNC(=O)[C@H]2CN(C(=O)Nc3ccncc3)CCN2S(=O)(=O)c2ccc(C(F)(F)F)cc2)cc1` [Example 3, (R)-4-(4-trifluoromethyl-benzenesulfonyl)-piperazine-1,3-dicarboxylic acid 3-(4-isopropyl-benzylamide) 1-pyridin-4-ylamide], the IC50 in test [1] and in test [2] was less than 100 nM throughout.

`CC(C)c1ccc(CNC(=O)[C@H]2CN(C(N)=S)CCN2S(=O)(=O)c2ccc(C(F)(F)F)cc2)cc1` [Example 4, (R)-4-thiocarbamoyl-1-(4-trifluoromethyl-benzenesulfonyl)-piperazine-2-carboxylic acid 4-isopropyl-benzylamide]: the IC50 in test [1] and in test [2] was 100 to 1000 nM throughout.

For the molecule `Cc1nc(N2CCN(S(=O)(=O)c3ccc(C(F)(F)F)cc3)[C@@H](C(=O)NCc3ccc(C(C)C)cc3)C2)sc1C(=O)OC(C)(C)C` [Example 5, 2-[(R)-3-(4-isopropyl-benzylcarbamoyl)-4-(4-trifluoromethyl-benzenesulfonyl)-piperazin-1-yl]-4-methyl-thiazole-5-carboxylic acid tert-butyl ester], the IC50 in test [1] and in test [2] was greater than 1000 nM in each case.

Take `Cc1nc(N2CCN(S(=O)(=O)c3ccc(C(F)(F)F)cc3)[C@@H](C(=O)NCc3ccc(C(C)C)cc3)C2)sc1C(=O)O` [Example 6, 2-[(R)-3-(4-isopropyl-benzylcarbamoyl)-4-(4-trifluoromethyl-benzenesulfonyl)-piperazin-1-yl]-4-methyl-thiazole-5-carboxylic acid]: the IC50 in test [1] and in test [2] was less than 100 nM in each case.

Take `Cc1nc(N2CCN(S(=O)(=O)c3ccc(C(F)(F)F)cc3)[C@@H](C(=O)NCc3ccc(C(C)C)cc3)C2)sc1C(N)=O` [Example 7, (R)-4-(5-carbamoyl-4-methyl-thiazol-2-yl)-1-(4-trifluoromethyl-benzenesulfonyl)-piperazine-2-carboxylic acid 4-isopropyl-benzylamide]: the IC50 in test [1] and in test [2] was less than 100 nM each time.

Consider `COC(=O)c1cnc(N2CCN(S(=O)(=O)c3ccc(C(F)(F)F)cc3)[C@@H](C(=O)NCc3ccc(C(C)C)cc3)C2)cn1` [Example 8, (R)-3-(4-isopropyl-benzylcarbamoyl)-4-(4-trifluoromethyl-benzenesulfonyl)-3,4,5,6-tetrahydro-2H-[1,2′]bipyrazinyl-5′-carboxylic acid methyl ester], for which the IC50 in test [1] and in test [2] was less than 100 nM each time.

Turning to `CC(C)c1ccc(CNC(=O)[C@H]2CN(c3cnc(C(=O)O)cn3)CCN2S(=O)(=O)c2ccc(C(F)(F)F)cc2)cc1` [Example 9, (R)-3-(4-isopropyl-benzylcarbamoyl)-4-(4-trifluoromethyl-benzenesulfonyl)-3,4,5,6-tetrahydro-2H-[1,2′]bipyrazinyl-5′-carboxylic acid], the IC50 in test [1] and in test [2] was less than 100 nM in each case.

Take `CC(=O)N1CCN(S(=O)(=O)c2ccc(OC(F)(F)F)c(I)c2)[C@@H](C(=O)NCc2ccc(C(C)C)cc2)C1` [Example 10, (R)-4-acetyl-1-(3-iodo-4-trifluoromethoxy-benzenesulfonyl)-piperazine-2-carboxylic acid 4-isopropyl-benzylamide]: the IC50 in test [1] and in test [2] was less than 100 nM throughout.

On to `CC(=O)N1CCN(S(=O)(=O)c2ccc(OC(F)(F)F)c(CCCC(=O)O)c2)[C@@H](C(=O)NCc2ccc(C(C)C)cc2)C1` [Example 11, 4-{5-[(R)-4-acetyl-2-(4-isopropyl-benzylcarbamoyl)-piperazine-1-sulfonyl]-2-trifluoromethoxy-phenyl}-butyric acid], for which the IC50 in test [1] and in test [2] was less than 100 nM each time.

As to `CCCc1ccc(CNC(=O)[C@H]2CN(C(C)=O)CCN2S(=O)(=O)c2ccc(C(C)C)cc2)c(C)c1` [Example 12, (R)-4-acetyl-1-(4-isopropyl-benzenesulfonyl)-piperazine-2-carboxylic acid 2-methyl-4-propyl-benzylamide], the IC50 in test [1] and in test [2] was less than 100 nM throughout.

Regarding `Cc1nc(N2CCN(S(=O)(=O)c3ccc(OC(F)(F)F)cc3)[C@@H](C(=O)NCc3ccc(C(C)C)nc3)C2)sc1C(=O)O` [Example 13, 2-[(R)-3-[(6-isopropyl-pyridin-3-ylmethyl)-carbamoyl]-4-(4-trifluoromethoxy-benzenesulfonyl)-piperazin-1-yl]-4-methyl-thiazole-5-carboxylic acid], the IC50 in test [1] and in test [2] was less than 100 nM in each case.

As for `CCCc1ccc(CNC(=O)[C@H]2CN(c3nc(C)c(C(=O)O)s3)CCN2S(=O)(=O)c2ccc(OC(F)(F)F)cc2F)cc1` [Example 14, 2-[(R)-4-(2-fluoro-4-trifluoromethoxy-benzenesulfonyl)-3-(4-propyl-benzylcarbamoyl)-piperazin-1-yl]-4-methyl-thiazole-5-carboxylic acid], the IC50 in test [1] and in test [2] was less than 100 nM in each case.

As to `CC(C)c1ccc(S(=O)(=O)N2CCNCC2C(=O)NCc2ccc(C(F)(F)F)cc2)cc1` (stereo not shown) [Example 15, 1-(4-isopropyl-benzenesulfonyl)-piperazine-2-carboxylic acid 4-trifluoromethyl-benzylamide hydrochloride], the IC50 in test [1] and in test [2] was greater than 1000 nM throughout.

Take `CC(C)c1ccc(S(=O)(=O)N2CCN(C)CC2C(=O)NCc2ccc(C(F)(F)F)cc2)cc1` (stereo not shown) [Example 16, 1-(4-isopropyl-benzenesulfonyl)-4-methyl-piperazine-2-carboxylic acid 4-trifluoromethyl-benzylamide]: the IC50 in test [1] and in test [2] was greater than 1000 nM throughout.

Take `CC(C)c1ccc(S(=O)(=O)N2CCN(S(C)(=O)=O)CC2C(=O)NCc2ccc(C(F)(F)F)cc2)cc1` (stereo not shown) [Example 17, 1-(4-isopropyl-benzenesulfonyl)-4-methanesulfonyl-piperazine-2-carboxylic acid 4-trifluoromethyl-benzylamide]: the IC50 in test [1] and in test [2] was greater than 1000 nM each time.
